In US7531320B2, “Modulation of β-catenin/TCF-activated transcription” (priority 2003, dated 2009):

Key:
full-length mouse CBP = target: T1, full-length mouse CBP (Mus musculus, UniProt P45481); experiment: 14C-labeled COMPOUND 1 incorporation into SW480 nuclear lysates transfected with CBP; assay type: binding; settings: 100 μM and 200 μM cold COMPOUND 1, dose dependent
T1 construct: vectors expressing full-length Xenopus laevis β-catenin (2.2 μg) or full-length mouse CBP (1.1 μg); expressed in transfected cells; host or cells: SW480
Method: FIG. 1. COMPOUND 1 inhibits β-catenin/TCF transcription. • A(i) and A(ii). Structures of COMPOUND 1, COMPOUND 2, COMPOUND 3, COMPOUND 4, and COMPOUND 5. • B(i) and B(ii). […] SW480 cells (10^5), (FIG. 1B(i)), were transfected with β-catenin/TCF luciferase construct. Cells were treated with COMPOUND 1 (1-64 μM). 24 hours post treatment lysates were prepared and subjected to dual luciferase assay. The data is represented in different form in FIG. 1B(ii). • C. COMPOUND 1 has no effect on NFAT reporter construct. Stably transfected Jurkat cells, right panel, with an NFAT reporter construct, were stimulated with PMA (10 ng/ml)/lonomycin (1 μg/ml), and treated with COMPOUND 1 (0.781-50 μM). 24 hours post treatment lysates were prepared and subjected to dual luciferase assay. All experiments were performed in duplicate and the values plotted as means +/−standard deviation. • D. CBP is the molecular target of COMPOUND 1. […] The lysates were desalted using G-25 1 cc columns (Pharmacia) to remove the unbound ^14C-labeled-COMPOUND 1, and ^14C-labeled-COMPOUND 1 incorporation was measured.
A series of further investigations were performed to further validate that COMPOUND 1 binds CBP. […] Cell lysates were then desalted using G-25 columns to remove the unbound ^14C-labeled COMPOUND 1 and the incorporation of radioactivity was measured.

[1] = test system: nuclear β-catenin in SW480 cells; experiment: β-catenin immunofluorescence and western blot localization in SW480 cells; assay type: cell-based, human; settings: 25 μM, 24 hours
Method: FIG. 4. COMPOUND 1 decreases nuclear β-catenin • A. β-catenin immunofluorescence microscopy. Log phase SW480 (left) and HCT116 (right) cells were fixed and stained with either anti-β-catenin red (upper panel, A) or anti-CBP (upper panel, B) green. The center panel represents the superimposed β-catenin and CBP in SW480 (left) and HCT116 (right) cells. […] 25 μg of total protein from the cell extracts of SW480 cells with or without 24 hr treatment of COMPOUND1 was used for detection of cytosolic and nuclear β-catenin.
Immunofluorescence was used to examine the localization of CBP and β-catenin in SW480 and HCT116 cells treated with COMPOUND 1 (25 μM) or control (0.5% DMSO). Cells at log phase were seeded and after 24 hours, the cells were treated with COMPOUND 1 or control. 24 hours post treatment, cells were fixed. The coverslips were incubated with antibodies raised against CBP (A-22) (Santa Cruz Biotechnology) and β-catenin (Transduction Laboratories), respectively. The slides were examined using a Nikon PCM 2000 Laser Scanning Confocal Microscope after the secondary antibodies conjugated to either FITC or TRITC (Jackson ImmunoResearch, Westgrove, Pa.) were applied.
The subcellular distribution of β-catenin and CBP was examined in order to determine whether the localization of either was affected by COMPOUND 1. […]

[2] = test system: caspase-3/7 in HCT116 cells; experiment: Caspase-3/7 activity assay, HCT116 cells; assay type: cell-based, human; settings: 25 μM, 24 hours, compared to CCD18Co cells
Method: FIG. 6. • A. COMPOUND 1 arrests cells in G1. FACS analysis was performed on SW480 (lower panel) and HCT116 (upper panel) cells treated for 24 hours with either COMPOUND 1 (25 μM) (right) or control (0.5% DMSO (left). 5.5×10^6 cells were fixed and stained with propidium iodide (PI). G0/G1, S, and G2/M are indicated by arrows. • B. COMPOUND 1 selectively activates caspases in colon carcinoma cell lines. SW480 and HCT116 (left graph) cells (10^5) along with the normal colonocytes, CCD18Co (right graph) were treated with either control (0.5% DMSO) or COMPOUND 1 (25 μM). 24 hours post treatment, cells were lysed and the caspase-3/7 enzymatic activities were measured. Relative fluorescence units (RFU) were calculated by subtracting the unit values of the blank (control, without cells) from the treated samples (COMPOUND 1 or control) and plotted.
SW480, HCT116, and CCD18Co cells were plated at 10^5 cells per well (96-well plates) for 24 hours prior to treatment. 25 μM of COMPOUND 1 or control (0.5% DMSO) was added to each well. 24 hours post treatment, cells were lysed and caspase activity was measured using a caspase-3/7 activity kit (Apo-One Homogeneous caspase-3/7 assay, #G77905, Promega). Relative fluorescence units (RFU) were obtained by subtracting the unit values of the blank (control, without cells) from the experimental measured values. […]

T1 sequence (P45481 whole entry): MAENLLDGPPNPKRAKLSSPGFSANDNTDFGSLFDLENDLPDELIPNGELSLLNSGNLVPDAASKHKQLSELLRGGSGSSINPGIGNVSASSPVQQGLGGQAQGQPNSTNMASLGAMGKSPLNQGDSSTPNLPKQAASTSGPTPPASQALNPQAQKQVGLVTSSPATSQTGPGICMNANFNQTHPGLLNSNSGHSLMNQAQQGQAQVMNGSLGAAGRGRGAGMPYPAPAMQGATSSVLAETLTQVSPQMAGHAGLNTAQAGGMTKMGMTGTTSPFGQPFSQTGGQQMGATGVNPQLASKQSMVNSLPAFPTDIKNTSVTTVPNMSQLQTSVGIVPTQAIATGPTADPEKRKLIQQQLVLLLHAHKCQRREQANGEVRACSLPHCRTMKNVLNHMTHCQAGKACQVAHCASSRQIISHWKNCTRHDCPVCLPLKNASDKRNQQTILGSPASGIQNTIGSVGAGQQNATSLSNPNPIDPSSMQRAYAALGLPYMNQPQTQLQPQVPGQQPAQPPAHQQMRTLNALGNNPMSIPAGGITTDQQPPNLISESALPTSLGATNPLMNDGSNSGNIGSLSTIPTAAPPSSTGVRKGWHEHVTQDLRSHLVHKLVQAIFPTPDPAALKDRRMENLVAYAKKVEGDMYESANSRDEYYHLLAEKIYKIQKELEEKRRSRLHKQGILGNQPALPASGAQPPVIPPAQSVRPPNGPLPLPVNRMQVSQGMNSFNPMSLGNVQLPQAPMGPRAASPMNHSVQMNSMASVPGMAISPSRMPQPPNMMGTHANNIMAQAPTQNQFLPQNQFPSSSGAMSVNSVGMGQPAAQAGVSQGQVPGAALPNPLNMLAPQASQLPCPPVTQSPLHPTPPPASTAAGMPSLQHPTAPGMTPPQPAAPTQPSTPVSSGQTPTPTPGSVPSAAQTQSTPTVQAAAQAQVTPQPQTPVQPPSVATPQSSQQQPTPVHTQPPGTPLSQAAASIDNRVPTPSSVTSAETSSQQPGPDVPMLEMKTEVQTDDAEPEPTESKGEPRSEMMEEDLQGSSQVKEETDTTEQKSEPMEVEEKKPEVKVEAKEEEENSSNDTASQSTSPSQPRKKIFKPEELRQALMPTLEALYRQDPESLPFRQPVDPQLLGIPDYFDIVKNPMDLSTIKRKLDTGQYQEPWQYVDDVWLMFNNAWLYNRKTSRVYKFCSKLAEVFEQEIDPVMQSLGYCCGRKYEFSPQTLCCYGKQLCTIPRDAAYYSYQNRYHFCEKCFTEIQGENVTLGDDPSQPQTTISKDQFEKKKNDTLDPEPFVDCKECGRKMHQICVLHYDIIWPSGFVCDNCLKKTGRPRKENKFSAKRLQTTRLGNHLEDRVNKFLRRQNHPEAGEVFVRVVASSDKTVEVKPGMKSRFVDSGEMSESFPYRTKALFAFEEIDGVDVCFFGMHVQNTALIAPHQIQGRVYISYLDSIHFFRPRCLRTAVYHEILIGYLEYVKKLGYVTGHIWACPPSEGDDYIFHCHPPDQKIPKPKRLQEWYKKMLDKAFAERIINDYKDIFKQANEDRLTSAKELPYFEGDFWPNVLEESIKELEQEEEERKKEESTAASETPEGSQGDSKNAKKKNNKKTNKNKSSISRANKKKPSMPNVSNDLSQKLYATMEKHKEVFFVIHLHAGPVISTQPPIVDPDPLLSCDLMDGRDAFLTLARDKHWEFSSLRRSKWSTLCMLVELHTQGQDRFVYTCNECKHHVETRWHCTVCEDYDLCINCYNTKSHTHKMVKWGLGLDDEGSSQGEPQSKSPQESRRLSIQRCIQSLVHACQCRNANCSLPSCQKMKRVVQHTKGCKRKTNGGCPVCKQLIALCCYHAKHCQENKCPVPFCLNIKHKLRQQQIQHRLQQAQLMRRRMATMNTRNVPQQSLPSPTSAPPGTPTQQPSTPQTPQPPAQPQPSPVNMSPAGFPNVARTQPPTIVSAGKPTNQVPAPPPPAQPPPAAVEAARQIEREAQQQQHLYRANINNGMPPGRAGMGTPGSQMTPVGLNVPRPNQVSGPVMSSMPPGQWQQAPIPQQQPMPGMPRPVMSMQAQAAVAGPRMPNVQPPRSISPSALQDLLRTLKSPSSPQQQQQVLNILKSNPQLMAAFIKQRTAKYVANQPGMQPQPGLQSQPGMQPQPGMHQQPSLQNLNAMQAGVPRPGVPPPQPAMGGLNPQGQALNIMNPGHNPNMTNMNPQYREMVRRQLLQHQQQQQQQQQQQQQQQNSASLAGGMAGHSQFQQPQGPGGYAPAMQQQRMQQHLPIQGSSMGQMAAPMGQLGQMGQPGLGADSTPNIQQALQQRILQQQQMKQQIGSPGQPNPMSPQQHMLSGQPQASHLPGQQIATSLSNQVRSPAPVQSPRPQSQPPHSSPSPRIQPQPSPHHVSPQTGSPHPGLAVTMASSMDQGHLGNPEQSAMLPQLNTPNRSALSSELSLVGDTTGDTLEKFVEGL

Q: `O=C1C(Cc2ccc(O)cc2)N2C(=O)CCN(C(=O)NCc3ccccc3)C2CN1Cc1cccc2ccccc12` (stereo not drawn) [COMPOUND 1] was tested. Which “Competition of 14C-labeled COMPOUND 1 incorporation by cold COMPOUND 1” value (full-length mouse CBP) did it give?
A: The value was “competed away”.

Q: What about the “Subcellular distribution of β-catenin” value [1] of the same compound?
A: The value was “caused translocation of β-catenin to the cytoplasm”.

Q: And the Caspase-3/7 activity [2]?
A: The Caspase-3/7 activity was “specifically and significantly activated”.
